In PubChem BioAssay AID623988 (Vanderbilt High Throughput Screening Facility, 2012) one finds IC50 data, which are given here for one compound.

SMILES strings stand for the structures. pIC50: −log10 of the molar value.

The assay addresses Voltage-gated inwardly rectifying potassium channel KCNH2 (Homo sapiens) (UniProt Q12809). Kind of assay: hERG channel inhibition by thallium flux, dose response, selectivity assay for GIRK activator project, cell-based, concentration-response (AID 623988). Conditions: hERG-expressing HEK293 cells, thallium flux fluorescence.

Chain of Voltage-gated inwardly rectifying potassium channel KCNH2 (Homo sapiens) (Q12809 whole entry, looked up): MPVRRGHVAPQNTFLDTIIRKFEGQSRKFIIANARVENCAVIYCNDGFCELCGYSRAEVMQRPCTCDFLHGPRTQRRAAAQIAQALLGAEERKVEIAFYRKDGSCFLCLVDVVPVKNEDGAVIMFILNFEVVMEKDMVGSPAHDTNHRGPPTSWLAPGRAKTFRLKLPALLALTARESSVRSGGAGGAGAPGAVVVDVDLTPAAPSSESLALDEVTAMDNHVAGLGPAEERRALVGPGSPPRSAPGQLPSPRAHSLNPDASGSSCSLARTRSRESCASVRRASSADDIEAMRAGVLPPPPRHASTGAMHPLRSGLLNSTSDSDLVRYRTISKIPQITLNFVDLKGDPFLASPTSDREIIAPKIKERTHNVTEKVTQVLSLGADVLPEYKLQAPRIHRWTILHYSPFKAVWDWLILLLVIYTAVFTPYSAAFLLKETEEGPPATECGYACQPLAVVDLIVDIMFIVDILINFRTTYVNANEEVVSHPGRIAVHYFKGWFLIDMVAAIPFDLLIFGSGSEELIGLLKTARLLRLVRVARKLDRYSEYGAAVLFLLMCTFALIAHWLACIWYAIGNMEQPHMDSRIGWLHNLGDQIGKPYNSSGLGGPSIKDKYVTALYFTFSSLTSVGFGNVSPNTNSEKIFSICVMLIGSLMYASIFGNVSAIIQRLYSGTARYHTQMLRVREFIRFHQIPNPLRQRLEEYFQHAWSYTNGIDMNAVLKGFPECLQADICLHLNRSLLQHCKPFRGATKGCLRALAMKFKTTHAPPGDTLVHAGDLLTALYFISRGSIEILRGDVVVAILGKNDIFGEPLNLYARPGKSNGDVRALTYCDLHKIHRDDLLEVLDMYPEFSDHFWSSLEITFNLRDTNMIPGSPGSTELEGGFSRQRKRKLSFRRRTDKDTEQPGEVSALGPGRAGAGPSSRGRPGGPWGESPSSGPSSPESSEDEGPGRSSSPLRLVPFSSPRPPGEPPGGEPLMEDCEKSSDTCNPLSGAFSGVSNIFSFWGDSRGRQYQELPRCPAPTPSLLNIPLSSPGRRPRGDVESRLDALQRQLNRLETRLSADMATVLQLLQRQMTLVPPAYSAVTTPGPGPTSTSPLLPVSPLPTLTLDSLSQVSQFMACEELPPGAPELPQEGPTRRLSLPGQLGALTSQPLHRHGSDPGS

In the case of `Cc1cc(NC(=O)Nc2ccc(F)c(F)c2)n(-c2ccccc2)n1`, the pIC50 is 4.97.

A word on the pIC50: it is the IC50 on a negative log10 scale, so that one unit is a factor of ten.
